Key:
HO-1 = assay: Western blotting of HO-1 in colon tissue; assay type: in vivo, mice; details: group ES: 2.0% v/v ethanol diet + 2.5 mg sesaminol per day oral, 2 weeks; group E significantly lower than group C
Source text: Chronic consumption of an excessive amount of ethanol has been reported to increase CYP2E1 and iNOS levels and cause ethanol-induced oxidative stress in the liver and other tissues. The nuclear factor erythroid 2-related factor 2/heme oxygenase-1 (Nrf2/HO-1) system has also been reported to be widely involved in the protection of cells from oxidative damage. Therefore, the expression levels of these proteins (CYP2E1, iNOS, and HO-1) in mouse colon tissue in the four groups (groups C, S, E, and ES) were examined by western blotting (WB).
A colon tissue sample (100 mg) was homogenized in 1 mL of an M-PER mammalian protein extraction reagent (Pierce) containing a diluent of a protease inhibitor cocktail (Nacalai Tesque, Inc.), and the resulting homogenate was centrifuged at 20,000× g at 4° C. for 15 minutes. The protein concentration of the supernatant was measured with a protein assay reagent (Bio-Rad Laboratories, Inc.), and equal amounts of proteins were subjected to SDS-PAGE. Electrophoresed proteins in the gel were transferred to a PVDF membrane, and the membrane was immersed in a blocking reagent (room temperature, overnight). The primary antibody (rabbit polyclonal antibody) was then reacted. […] The band intensities were quantified with ImageJ.

ZO-1 = assay: Western blotting of ZO-1 in colon tissue; assay type: in vivo, mice; details: group ES: 2.0% v/v ethanol diet + 2.5 mg sesaminol per day oral, 2 weeks, vs group E; lower than group C
Source text: (§1) Acetaldehyde, which accumulates during ethanol metabolism, is known to disrupt intestinal tight junctions (TJs) via dissociation of colonic epithelium TJ proteins (ZO-1, occludin, and claudin-1) from the cytoskeleton. […] Therefore, whether oral administration of sesaminol would affect ethanol-induced intestinal barrier dysfunction was examined by analyzing the expression levels of colonic epithelial TJ proteins and the plasma LPS level in the mice in the four groups (groups C, S, E, and ES).
(§2) WB was performed in the same manner as in Example 4 above. The following primary antibodies were used. • Anti-mouse zonula occludens-1 protein (ZO-1) rabbit polyclonal antibody • Anti-mouse occludin rabbit polyclonal antibody • Anti-mouse claudin-1 rabbit polyclonal antibody

claudin-1 = assay: Western blotting of claudin-1 in colon tissue; assay type: in vivo, mice; details: group ES: 2.0% v/v ethanol diet + 2.5 mg sesaminol per day oral, 2 weeks, vs group E; lower than group C
Source text: as §1, §2

[1] = Change in body weight and general observation, 4 weeks; assay type: in vivo; details: groups S and ES (2.5 mg sesaminol per day, oral) vs groups C and E
Procedure: Ten-week-old C57BL/6NCr male mice were divided into four groups (eight mice per group), i.e., group C, group S, group E, and group ES, and fed daily for 4 weeks in the same manner as in Example 1.
The body weights of the mice in the above four groups (group C, group S, group E, and group ES) were measured every week.

[2] = Body weight and percentage of liver weight relative to body weight, 4 weeks; assay type: in vivo, mice; details: mean ±SD
Source text: (§3) The liver function and plasma lipid level in the mice in each group were examined by measuring the percentage of the liver weight relative to the body weight, the triglyceride (TG) concentration in the liver, the aspartate aminotransferase (AST) activity in the plasma, the alanine aminotransferase (ALT) activity in the plasma, and the TG concentration in the plasma of the mice in each group.
The body weight of mice fed for 4 weeks were weighed and dissected under anesthesia. The liver was removed and weighed. The weight ratio between the body weight and the liver of each individual was evaluated.

[3] = TG amount in the liver, 4 weeks; assay type: in vivo, mice; details: mean ±SD
Procedure: as §3
Each liver was homogenized at 4° C., and TG was extracted according to the product protocol of a reagent kit for TG extraction from tissue (Lipid Droplet Isolation Kit, produced by Cell Biolabs, Inc.). The amounts of TG and protein in each extracted sample were quantified according to the product protocol of each measuring reagent and converted to the TG amount (mg) per protein (g) for evaluation.

secretory IgA = assay: Amount of secretory IgA in colon tissue of mice; assay type: in vivo; details: group ES: 2.0% v/v ethanol diet + 2.5 mg sesaminol per day oral, 4 weeks, vs group E; level similar to group C
Procedure: The effect of oral administration of sesaminol on the amount of mucus secretion in mouse colon was examined by measuring the amount of fecal mucin of the mice in each group (groups C, E, S, and ES) and the amount of secretory immunoglobulin A (sIgA) in the colon tissue of the mice.
After liquid nitrogen treatment, the amount of sigA in each colon tissue stored at −80° C. was quantified according to the product protocol of a reagent kit for measuring secretory IgA (QuickDetect (trademark) Secretory IgA (Mouse) ELISA kit, produced by BioVision, Inc.). The resulting value was converted to the secretory IgA concentration (ng/ml) per 100 mg of the tissue and evaluated.

LPS = assay: Plasma LPS level, 4 weeks; assay type: in vivo, mice; details: group ES: 2.0% v/v ethanol diet + 2.5 mg sesaminol per day oral, vs group E, level similar to groups C and S
Procedure: The plasma LPS concentration was measured with a limulus amebocyte lysate (LAL) assay.
Next, in order to verify the longer-term effect of oral administration of sesaminol on ethanol-induced intestinal tight junction (TJ) dysfunction and leaky gut, histological analysis of colonic epithelial TJ proteins (ZO-1, Occludin, and Claudin-1) and analysis of the plasma LPS level were performed using the mice in each group (groups C, S, E, and ES) described in Example 7. Histological analysis was performed by immunofluorescence staining with anti-ZO-1, anti-Occludin, and anti-Claudin-1 antibodies, followed by observation under a fluorescence microscope. The Plasma LPS level was measured according to the method described in Example 6.

[4] = EtOH (2.0% v/v) + Sesaminol group ES

In the case of `Oc1cc2c(cc1C1OCC3C(c4ccc5c(c4)OCO5)OCC13)OCO2` (stereo not drawn) [Sesaminol], the HO-1 expression level (HO-1) is reported as “recovery of the expression level”, the “expression level of ZO-1” value (ZO-1) is reported as “significantly higher than those in group E” and the “expression level of claudin-1” value (claudin-1) is reported as “significantly higher than those in group E”. For the same molecule, the “body-weight changes between the groups” value [1] was “No significant differences”, the Body weight [2, 4] was 25.4 ± 1.0 g and the Liver/body weight ratio [2, 4] was 4.04 ± 0.41 g/g, %. For the same molecule, the Body weight ([2]; Sesaminol (2.5 mg/d) group S) was 25.9 ± 0.8 g, the Liver/body weight ratio ([2]; Sesaminol (2.5 mg/d) group S) was 3.96 ± 0.55 g/g, % and the “Liver TG” value [3, 4] was 51.8 ± 9.5 mg/g of protein. For the same molecule, the “Liver TG” value ([3]; Sesaminol (2.5 mg/d) group S) was 38.1 ± 12.4 mg/g of protein, the “amount of secretory IgA in colon tissue” value (secretory IgA) was “significantly higher than that in group E” and the “plasma LPS concentration” value (LPS) was “significant and considerable decrease in the plasma LPS concentration compared with group E”.

Source: patent US20240408053A1, “ENTERITIS-SUPPRESSING COMPOSITION” (KOBE GAKUIN EDUCATIONAL FOUNDATION, priority 2021, published 2024)
